The record followed here is ChEMBL document CHEMBL1126112 (J Med Chem, 1992).

The species named for one experiment is Cavia porcellus. The experiment is described as follows: Tested for naloxone pA2 activity in guinea pig ileum. In kind it is functional.
In experiment [1] the target is Kappa-type opioid receptor (Cavia porcellus, UniProt P41144). Put plainly: Tested for inhibitory effect on binding of [3H]bremazocine to opioid receptor kappa in guinea pig cerebellum membranes. In kind it is cell membranes, Membrane.
Chain of Kappa-type opioid receptor (P41144 whole entry): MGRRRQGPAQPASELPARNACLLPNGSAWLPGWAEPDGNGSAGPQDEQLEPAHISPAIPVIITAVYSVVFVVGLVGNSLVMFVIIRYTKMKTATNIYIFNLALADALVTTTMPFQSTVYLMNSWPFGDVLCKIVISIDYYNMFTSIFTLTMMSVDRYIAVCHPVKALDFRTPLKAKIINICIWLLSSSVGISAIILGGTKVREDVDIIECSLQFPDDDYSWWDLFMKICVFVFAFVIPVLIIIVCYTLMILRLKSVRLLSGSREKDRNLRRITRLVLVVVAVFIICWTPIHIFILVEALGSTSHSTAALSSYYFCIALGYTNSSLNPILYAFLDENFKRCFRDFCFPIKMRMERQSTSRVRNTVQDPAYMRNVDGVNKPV
Another experiment concerns the target Mu-type opioid receptor (Cavia porcellus, UniProt P97266). Put plainly: Tested for inhibitory effect on binding of [3H]DAMGO to opioid receptor mu in guinea pig cerebellum membranes. In kind it is cell membranes, Membrane.
Experiment [2] concerns the target Opioid receptors; mu/kappa/delta (Homo sapiens, UniProt P41145+P41143+P35372). The experiment is described as follows: Tested for opioid receptor agonistic activity in guinea pig ileum. To be noted: target entry is the homologue from another species. In kind it is functional, tissue-based, Cavia porcellus.

Usually Ki stands for a measure of affinity in units of concentration, obtained from inhibition or displacement. Read a high Ki as weaker binding. The IC50 is the concentration that inhibits the measured activity by half. Low values mean greater potency in that assay, high ones weaker potency in that assay.

Chain of Mu-type opioid receptor (P97266 whole entry): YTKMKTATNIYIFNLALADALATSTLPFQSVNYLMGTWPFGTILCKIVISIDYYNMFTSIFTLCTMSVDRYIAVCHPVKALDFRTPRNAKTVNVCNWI

In the experiment filed under Cavia porcellus, `CC[C@H](C)[C@H](NC(=O)[C@H](CCCN=C(N)N)NC(=O)[C@H](CCCN=C(N)N)NC(=O)[C@H](CC(C)C)NC(=O)[C@H](Cc1ccccc1)NC(=O)CNC(=O)CNC(=O)[C@H](Cc1ccc(O)cc1)NCC1CC1)C(=O)N[C@@H](CCCN=C(N)N)C(=O)N1CCC[C@@H]1C(=O)N[C@@H](CCCCN)C(=O)O` yielded an Activity of 7.3. In addition, the values for the Ki (in experiment [1]; at Mu-type opioid receptor) were 0.02 nM and 9.6 nM, respectively. In experiment [2], this compound registered an IC50 of 2.16 nM.

On to `C=CCN[C@@H](Cc1ccc(O)cc1)C(=O)NCC(=O)NCC(=O)N[C@@H](Cc1ccccc1)C(=O)N[C@@H](CC(C)C)C(=O)N[C@@H](CCCN=C(N)N)C(=O)N[C@@H](CCCN=C(N)N)C(=O)N[C@H](C(=O)N[C@@H](CCCN=C(N)N)C(=O)N1CCC[C@@H]1C(=O)N[C@@H](CCCCN)C(=O)O)[C@@H](C)CC`, for which the Activity in the experiment listed under Cavia porcellus is 7.6.

With `CN1CC[C@]23c4c5ccc(O)c4O[C@H]2[C@@H](O)C=C[C@H]3[C@H]1C5` [MORPHINE], the Activity in the experiment filed under Cavia porcellus came out at 8.2.

Compound `CC[C@H](C)[C@H](NC(=O)[C@H](CCCN=C(N)N)NC(=O)[C@H](CCCN=C(N)N)NC(=O)[C@H](CC(C)C)NC(=O)[C@H](Cc1ccccc1)NC(=O)CNC(=O)CNC(=O)[C@@H](N)Cc1ccc(O)cc1)C(=O)N[C@@H](CCCN=C(N)N)C(=O)N1CCC[C@@H]1C(=O)N[C@@H](CCCCN)C(=O)O` displayed an Activity in the experiment listed under Cavia porcellus of 7.2.

Regarding `C=CCN(CC=C)[C@@H](Cc1ccc(O)cc1)C(=O)NCC(=O)NCC(=O)N[C@@H](Cc1ccccc1)C(=O)N[C@@H](CC(C)C)C(=O)N[C@@H](CCCN=C(N)N)C(=O)N[C@@H](CCCN=C(N)N)C(=O)N[C@H](C(=O)N[C@@H](CCCN=C(N)N)C(=O)N1CCC[C@@H]1C(=O)N[C@@H](CCCCN)C(=O)O)[C@@H](C)CC`, the Ki in experiment [1] turned out to be 3.6 nM; on Mu-type opioid receptor it was 31.7 nM. The IC50 in experiment [2] is on record as 687 nM.
